Test results: patent US6559180B2, “Nitroglycerin-menthol potentiation for treatment of angina” (priority 2001, dated 2003)
“And” between values parts separate entries of the source, which are not always exact repeats. Identical values can stand only once.

Legend:
[1] = First study: sublingual pump spray in angina patients intolerant to standard 400 mcg NTG spray (intolerance and anginal pain relief); type: in vivo; settings: single 200 mcg NTG spray dosage sublingually, Nitrolingual solution diluted fifty percent with placebo solution; 21 patients
Protocol: The first study identifies 21 patients experiencing intolerance to a standard “Nitrolingual”® NTG 400 mcg spray dosage delivered sublingually.
The “Nitrolingual”® solution described above was diluted fifty percent with a pharmacologically neutral solution placebo obtained from the same manufacturer, forming a combination solution. […] Each of the patients was then provided with a pump spray containing the combination solution which would limit each single spray dosage to 200 mcg NTG.
Next, isovolumic amounts of “Nitrolingual”® Pumpspray solution and 1% Menthol solution were mixed and the combination solution was provided to patients as a pump spray.

[2] = Second study: exercise stress tests in patients with reproducible exertional angina; type: in vivo
Source text: The second study pertained to five patients that experienced reproducible exertional angina. The study comprised administering exercise stress tests for each patient on three consecutive days. […]
For each patient, the stress test was stopped with the onset of angina. The objective evidence of ischemia was indicated by the degree of S-T segment depression and presence of segmental wall abnormalities documented by echocardiographic study performed immediately after the exercise stress test.
All tests monitored angina with exercise, exercise tolerance, and the degree of S-T segment depression on the ECG, when: 1) no medication was administered (Table 1); […]); and, 3) a solution containing isovolumic amounts of NTG and Menthol […]

O=[N+]([O-])OCC(CO[N+](=O)[O-])O[N+](=O)[O-] [NTG, Nitroglycerin]
patients that did not experience intolerance [1]: 90%
patients that received satisfactory relief from anginal pain within two minutes [1]: 19%
Heart Rate at Peak ([2]; 400 mg NTG administered prior to exercise, one line per patient (1-5)): 120 and 128 and 140 and 112 and 130
Duration of Exercise ([2]; 400 mg NTG administered prior to exercise, test stopped at onset of angina, one line per patient (1-5)): 5 min and 6 min and 6.5 min and 4.5 min and 7.5 min
side effects observed ([2]; 400 mcg NTG by itself or 200 mcg NTG in combination with Menthol, before exercise): No side effects were observed
